We go through six compounds from paper PMC3310947 (Chemical biology & drug design, 2012).

The first assay deals with T1, mouse Dvl1 PDZ domain (mDvl1 residues 247-341) (Mus musculus, UniProt P51141, C338A).
T1 sequence (P51141 247-341 C338A): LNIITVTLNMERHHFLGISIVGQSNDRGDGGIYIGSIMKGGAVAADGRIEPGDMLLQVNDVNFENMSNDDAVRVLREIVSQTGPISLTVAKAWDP
Description: fluorescence polarization competition with Rox-DprC. It is filed as binding. For orientation: Fluorescence polarisation rises when a labelled molecule tumbles more slowly, as on binding a larger partner.
As to `Cc1ccc(C[C@H](NC(=O)c2cccc(C)c2)C(=O)N[C@@H](CC(C)C)C(=O)O)cc1` [J01-015], the Ki (usually the equilibrium dissociation constant of an inhibitor or competing ligand from its target) stood at 3.5 ± 0.21 µM.

Compound `Cc1ccc(C[C@H](NC(=O)c2cccc(F)c2)C(=O)N[C@@H](CC(C)C)C(=O)O)cc1` [J01-007] gave a Ki of 4.2 ± 0.46 µM.

`Cc1ccc(C[C@H](NC(=O)c2cc(C)c(F)c(F)c2)C(=O)N[C@@H](CC(C)C)C(=O)O)cc1` [J01-017a] showed a Ki of 1.5 ± 0.52 µM.

The next assay deals with T1, mouse Dvl1 PDZ domain (mDvl1 residues 247-341). Description: […]-HSQC NMR chemical shift titration. It is filed as binding.
For `CC(C)C[C@H](NC(=O)[C@H](Cc1ccccc1)NC(=O)c1cccc(F)c1)C(=O)O` [J02-001], the dissociation constant (Kd) (commonly the constant that tells how readily two partners part at equilibrium) came to 7.67 µM.

Consider `Cc1ccc(C[C@H](NC(=O)c2cccc(C)c2)C(=O)N[C@@H](CC(C)C)C(=O)O)cc1` [J01-015], for which the Kd stood at 2.96 µM.

Turning to `CC(C)C[C@H](NC(=O)[C@H](Cc1ccccc1)NC(=O)c1ccc(F)cc1)C(=O)O` [J02-002], the Kd turned out to be 3.49 µM.

`Cc1ccc(C[C@H](NC(=O)c2cccc(F)c2)C(=O)N[C@@H](CC(C)C)C(=O)O)cc1` [J01-007]: the Kd stood at 2.27 µM.

In the case of `Cc1ccc(C[C@H](NC(=O)c2cccc(C#N)c2)C(=O)N[C@@H](CC(C)C)C(=O)O)cc1` [J01-012], the Kd amounted to 1.83 µM.
